From patent US9867376B2, “Herbicidal compositions comprising N-tetrazol-5-yl)- or N-(triazol-5-yl)arylcarboxamides” (priority 2012, dated 2018)

What was measured:
Format in all cases: in vivo
Portulaca oleracea = assay: Field trial, post-emergence, visual scoring; conditions: Table 5-13, field, alone, 250 g of a.i./ha
Experimental: (§1) The tests were conducted outdoors (plot trials, 10 m^2 per plot, 2 repetitions, spray application with 200-300 liters of water per hectare). Crops and broad-leaved weeds/weed grasses were sown under customary field conditions. In addition, a natural weed flora also appeared. Application was by the post-emergence method. The application rates of the herbicidally active compounds applied on their own or in combinations are likewise shown in the tables below. Evaluations were by visual scoring (using a 0-100% scale) after application by comparison of treated and untreated test variants.
(§2) The abbreviations denote: • a.i.=active ingredient • E^C=expected value according to Colby (E^C=A+B−A×B100) • Δ=difference (%) of the measured value to the expected value (%) (measured value minus expected value)
(§3) Evaluation: • measured value E is greater than E^C:→synergism (+Δ) • measured value E equals E^C:→additive effect • measured value E is smaller than E^C:→antagonism (−Δ)

Euphorbia heterophylla = assay: Field trial, post-emergence, visual scoring
Experimental: as §1, §2, §3

Amaranthus retroflexus = assay: Field trial, post-emergence, visual scoring; conditions: Table 5-48, field, alone, 560 g of a.i./ha
Experimental: as §1, §2, §3

Avena fatua = assay: Greenhouse trial, post-emergence, visual herbicidal effect; conditions: alone
Experimental: (§4) The weed seeds were sown in pots (diameter 8 cm) with sandy loam soil and germinated under optimum conditions. The herbides were applied by the post-emergence method onto the pots with the cultures, at a spray volume of 300 I/ha. The herbicides were applied on their own and in combination. The trial was conducted in a greenhouse under optimum growth conditions. The herbicidal effects were assessed visually by comparison of untreated and treated plants. The percentages mean: 0%=no effects, 100%=the plants die off completely). The percentages are used to calculate interactions between individual treatments and combination treatment according to S. R. Colby, Weeds 15, pages 20 to 22 (1967).
as §2, §3

Polygonum convolvulus = assay: as above; conditions: alone
Experimental: as §4, §2, §3

Phalaris minor = assay: as above; conditions: Table 5-03, greenhouse, alone, 25 g of a.i./ha
Experimental: as §4, §2, §3

Papaver rhoeas = assay: as above; conditions: alone
Experimental: as §4, §2, §3

Viola tricolor = assay: as above; conditions: alone
Experimental: as §4, §2, §3

Centaurea cyanis [1] = assay: as above; conditions: alone
Experimental: as §4, §2, §3

Alopecurus myosuroides = assay: Field trial, post-emergence, visual scoring; conditions: Table 5-60, field, alone, 83 g of a.i./ha
Experimental: as §1, §2, §3

Veronica hederifolia = assay: Greenhouse trial, post-emergence, visual herbicidal effect; conditions: Table 5-89, greenhouse, alone, 10 g of a.i./ha
Experimental: as §4, §2, §3

Ambrosia artemisiifolia = assay: as above; conditions: Table 5-52, greenhouse, alone, 4 g of a.i./ha
Experimental: as §4, §2, §3

Lolium multiflorum = assay: Field trial, post-emergence, visual scoring; conditions: Table 5-54, field, alone, 25 g of a.i./ha
Experimental: as §1, §2, §3

Polygunum convolvulus = assay: Field trial, post-emergence, visual scoring; conditions: Table 5-53, field, alone, 25 g of a.i./ha
Experimental: as §1, §2, §3

Centaurea cyanis [2] = assay: Field trial, post-emergence, visual scoring; conditions: Table 5-59, field, alone, 240 g of a.i./ha
Experimental: as §1, §2, §3

CCNc1nc(Cl)nc(NC(C)C)n1 [atrazine]
Activity [%] against Portulaca oleracea (Portulaca oleracea): 25% | Activity [%] against Euphorbia heterophylla (Euphorbia heterophylla; Field, dosage 1000 g of a.i./ha): 55% | Activity [%] against Euphorbia heterophylla (Euphorbia heterophylla; Table 5-51, field, alone, 1000 g of a.i./ha): 49% | Activity [%] against Euphorbia heterophylla (Euphorbia heterophylla; Table 5-63, field, alone, 1000 g of a.i./ha): 49% | Activity [%] against Euphorbia heterophylla (Euphorbia heterophylla; Table 5-85, field, alone, 1000 g of a.i./ha): 49% | Activity [%] against Amaranthus retroflexus (Amaranthus retroflexus): 60%

CCOC(=O)[C@@H](C)Oc1ccc(Oc2nc3ccc(Cl)cc3o2)cc1 [fenoxaprop-P-ethyl]
Activity [%] against Avena fatua (Avena fatua; Table 5-01, greenhouse, 25 g of a.i./ha): 0% | Activity [%] against Avena fatua (Avena fatua; Table 5-05, greenhouse, 12.5 g of a.i./ha): 0% | Activity [%] against Avena fatua (Avena fatua; Table 5-07, greenhouse, 12.5 g of a.i./ha): 0% | Activity [%] against Avena fatua (Avena fatua; Table 5-49, greenhouse, 25 g of a.i./ha): 0% | Activity [%] against Polygonum convolvulus (Polygonum convolvulus; Table 5-08, greenhouse, 25 g of a.i./ha): 0% | Activity [%] against Phalaris minor (Phalaris minor): 15% | Activity [%] against Papaver rhoeas (Papaver rhoeas; Table 5-06, greenhouse, 12.5 g of a.i./ha): 20% | Activity [%] against Viola tricolor (Viola tricolor; Table 5-02, greenhouse, 25 g of a.i./ha): 0% | Activity [%] against Viola tricolor (Viola tricolor; Table 5-09, greenhouse, 12.5 g of a.i./ha): 15% | Activity [%] against Centaurea cyanis (Centaurea cyanis [1]; Table 5-50, greenhouse, 25 g of a.i./ha): 0% | Activity [%] against Alopecurus myosuroides (Alopecurus myosuroides): 30%

CCc1cc(C)cc(CC)c1-c1c(OC(=O)C(C)(C)C)n2n(c1=O)CCOCC2 [pinoxaden]
Activity [%] against Polygonum convolvulus (Polygonum convolvulus; Table 5-88, greenhouse, 10 g of a.i./ha): 0% | Activity [%] against Papaver rhoeas (Papaver rhoeas; Table 5-39, greenhouse, 5 g of a.i./ha): 0% | Activity [%] against Papaver rhoeas (Papaver rhoeas; Table 5-41, greenhouse, 10 g of a.i./ha): 10% | Activity [%] against Papaver rhoeas (Papaver rhoeas; Table 5-86, greenhouse, 10 g of a.i./ha): 0% | Activity [%] against Papaver rhoeas (Papaver rhoeas; Table 5-87, greenhouse, 10 g of a.i./ha): 50% | Activity [%] against Viola tricolor (Viola tricolor; Table 5-42, greenhouse, 10 g of a.i./ha): 0% | Activity [%] against Centaurea cyanis (Centaurea cyanis [1]; Table 5-38, greenhouse, 5 g of a.i./ha): 0% | Activity [%] against Centaurea cyanis (Centaurea cyanis [1]; Table 5-40, greenhouse, 5 g of a.i./ha): 15% | Activity [%] against Veronica hederifolia (Veronica hederifolia): 20%

Cc1ccc(C(=O)Nc2nnnn2C)c(Cl)c1S(C)(=O)=O [A1-49]
Activity [%] against Ambrosia artemisiifolia (Ambrosia artemisiifolia): 80% | Activity [%] against Lolium multiflorum (Lolium multiflorum): 40% | Activity [%] against Polygunum convolvulus (Polygunum convolvulus): 35%

CC(C)N(C(=O)COc1nnc(C(F)(F)F)s1)c1ccc(F)cc1 [flufenacet]
Activity [%] against Centaurea cyanis (Centaurea cyanis [2]): 0%
